Reference: ChEMBL document CHEMBL4765338, “Simple analogues of natural product chelerythrine: Discovery of a novel anticholinesterase 2-phenylisoquinolin-2-ium scaffold with excellent potency against acetylcholinesterase” (Eur J Med Chem, 2020)

Assays:
Cholinesterase = Cholinesterase (Homo sapiens, UniProt P06276)
Description: Inhibition of BuChE (unknown origin) preincubated for 30 mins followed by substrate addition acetylthiocholineiodide measured after 40 mins by Ellman's method

Acetylcholinesterase = Acetylcholinesterase (Homo sapiens, UniProt P22303)
Description: Inhibition of AChE (unknown origin) preincubated for 30 mins followed by substrate addition acetylthiocholineiodide measured after 40 mins by Ellman's method

[1] = Cytotoxicity against goat fetal fibroblast cells incubated for 48 hrs by MTT assay; type: cell-based, Fetal fibroblast cell; conditions: Capra hircus
N2a = experiment: Cytotoxicity against mouse N2a cells incubated for 48 hrs by MTT assay; type: cell-based
[2] = Cytotoxicity against porcine fetal kidney cells incubated for 48 hrs by MTT assay; type: cell-based; conditions: Sus scrofa, Fetal kidney cell

Chain of Cholinesterase (P06276 whole entry): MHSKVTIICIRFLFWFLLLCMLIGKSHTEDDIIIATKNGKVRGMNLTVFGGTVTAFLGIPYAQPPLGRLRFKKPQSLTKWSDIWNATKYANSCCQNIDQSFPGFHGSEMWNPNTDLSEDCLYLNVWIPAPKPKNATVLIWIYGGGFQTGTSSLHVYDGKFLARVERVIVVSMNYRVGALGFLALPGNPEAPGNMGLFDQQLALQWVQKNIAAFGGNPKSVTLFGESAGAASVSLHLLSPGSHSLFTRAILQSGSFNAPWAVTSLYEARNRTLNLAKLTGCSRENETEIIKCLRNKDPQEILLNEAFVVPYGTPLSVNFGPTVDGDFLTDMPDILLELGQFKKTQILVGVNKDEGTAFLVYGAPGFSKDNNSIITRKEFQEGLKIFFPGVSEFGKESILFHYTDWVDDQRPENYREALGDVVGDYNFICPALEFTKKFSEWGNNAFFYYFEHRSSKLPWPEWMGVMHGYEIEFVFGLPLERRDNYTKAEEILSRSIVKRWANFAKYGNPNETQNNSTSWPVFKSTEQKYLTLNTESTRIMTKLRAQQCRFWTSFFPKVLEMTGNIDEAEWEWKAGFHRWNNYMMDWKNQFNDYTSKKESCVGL
Chain of Acetylcholinesterase (P22303 whole entry): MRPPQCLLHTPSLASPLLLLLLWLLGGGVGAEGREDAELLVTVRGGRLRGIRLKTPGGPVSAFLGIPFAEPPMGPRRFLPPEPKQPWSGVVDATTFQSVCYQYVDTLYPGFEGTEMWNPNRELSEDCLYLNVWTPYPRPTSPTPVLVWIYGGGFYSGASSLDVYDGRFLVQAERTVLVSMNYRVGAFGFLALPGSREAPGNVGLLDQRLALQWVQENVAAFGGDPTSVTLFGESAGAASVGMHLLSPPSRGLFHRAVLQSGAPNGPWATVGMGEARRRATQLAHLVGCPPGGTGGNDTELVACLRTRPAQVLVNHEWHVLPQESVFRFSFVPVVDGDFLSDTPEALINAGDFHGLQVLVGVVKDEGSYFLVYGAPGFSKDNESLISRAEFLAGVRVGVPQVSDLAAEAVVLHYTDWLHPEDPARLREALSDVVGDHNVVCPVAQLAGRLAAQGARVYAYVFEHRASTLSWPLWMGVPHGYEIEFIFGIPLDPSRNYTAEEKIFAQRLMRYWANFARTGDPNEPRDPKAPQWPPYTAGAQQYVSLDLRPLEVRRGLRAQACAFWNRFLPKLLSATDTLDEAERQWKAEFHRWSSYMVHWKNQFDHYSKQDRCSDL

Row | Structure (SMILES) | IC50 (Cholinesterase) | IC50 (Acetylcholinesterase) | IC50 [1] | IC50 (N2a) | IC50 [2]
1 | COc1cccc2c1C=[N+](c1ccccc1Br)CC2 | 27.2 µM | 1.5 µM | – | – | –
2 | COc1cccc2c1C=[N+](c1ccccc1C#N)CC2 | – | > 10 µM | – | – | –
3 | COc1cccc2c1C=[N+](c1ccc(F)cc1)CC2 | 113 µM | 1.99 µM | – | – | –
4 | COc1cccc2c1C=[N+](c1cccc(F)c1)CC2 | – | > 10 µM | – | – | –
5 | COc1cccc2c1C=[N+](c1cccc(I)c1)CC2 | – | > 10 µM | – | – | –
6 | COc1cccc2c1C=[N+](c1ccccc1C)CC2 | 133 µM | 3.07 µM | – | – | –
7 | COc1cccc2c1C=[N+](c1cccc(Cl)c1)CC2 | – | > 10 µM | – | – | –
8 | COc1cccc2c1C=[N+](c1ccc(I)cc1F)CC2 | 128 µM | 1.06 µM | – | – | –
9 | COc1cccc2c1C=[N+](c1ccc(C#N)cc1)CC2 | – | > 10 µM | – | – | –
10 | COc1cccc([N+]2=Cc3c(cccc3OC)CC2)c1 | 77.3 µM | 5.23 µM | – | – | –
11 | COc1cccc2c1C=[N+](c1ccccc1C(F)(F)F)CC2 | – | > 10 µM | – | – | –
12 | COc1cccc2c1C=[N+](c1ccc(Cl)cc1)CC2 | 62.1 µM | 0.32 µM | – | – | –
13 | COc1cccc2c1C=[N+](c1ccc(C(F)(F)F)cc1)CC2 | 221 µM | 1.94 µM | – | – | –
14 | COc1cccc2c1C=[N+](c1cccc(Br)c1)CC2 | – | > 10 µM | – | – | –
15 | COc1cccc2c1C=[N+](c1cccc(C#N)c1)CC2 | 110 µM | 5.13 µM | – | – | –
16 | COc1cccc2c1C=[N+](c1ccc(Cl)cc1Cl)CC2 | 90.5 µM | 1.04 µM | – | – | –
17 | COc1ccc([N+]2=Cc3c(cccc3OC)CC2)cc1 | 113 µM | 1.04 µM | 27.3 µM | 26.6 µM | 23.8 µM
18 | COc1cccc2c1C=[N+](c1ccccc1I)CC2 | 28.9 µM | 1.79 µM | – | – | –
19 | COc1cccc2c1C=[N+](c1ccc(I)cc1)CC2 | 58.1 µM | 1.01 µM | – | – | –
20 | COc1cccc2c1C=[N+](c1ccccc1F)CC2 | 75 µM | 2.94 µM | – | – | –
21 | COc1cccc2c1C=[N+](c1cccc(C(F)(F)F)c1)CC2 | – | > 10 µM | – | – | –
22 | COc1cccc2c1C=[N+](c1cc(Cl)cc(Cl)c1)CC2 | – | > 10 µM | – | – | –

Row | Structure (SMILES) | IC50 (Cholinesterase) | IC50 (Acetylcholinesterase) | IC50 [1] | IC50 (N2a) | IC50 [2]
23 | COc1cccc2c1C=[N+](c1ccc(C)cc1)CC2 | 47.1 µM | 0.53 µM | – | – | –
24 | COc1cccc2c1C=[N+](c1ccccc1)CC2 | 35.4 µM | 1.62 µM | – | – | –
25 | COc1cccc2c1C=[N+](c1ccccc1Cl)CC2 | 190 µM | > 10 µM | – | – | –
26 | COc1cccc2c1C=[N+](c1cccc(C)c1)CC2 | 35.9 µM | 2.89 µM | – | – | –
27 | COc1cccc2c1C=[N+](c1ccc(Br)cc1F)CC2 | 69.3 µM | 1.29 µM | – | – | –
28 | COc1cccc2c1C=[N+](c1c(F)cccc1F)CC2 | 105 µM | 1.29 µM | – | – | –
29 | COc1cccc2c1C=[N+](c1ccc(Br)cc1Br)CC2 | 116 µM | 3.72 µM | 6.13 µM | 4.26 µM | 6.03 µM
30 | COc1cccc2c1C=[N+](c1ccc(Br)cc1)CC2 | 20.7 µM | 0.28 µM | 20.6 µM | 20.3 µM | 19.2 µM
31 | COc1ccccc1[N+]1=Cc2c(cccc2OC)CC1 | – | > 10 µM | – | – | –
32 | C[n+]1cc2c3c(ccc2c2ccc4cc5c(cc4c21)OCO5)OCO3 | 7.08 µM | 1.22 µM | – | – | –
33 | COc1cccc2cc[n+](-c3ccccc3F)cc12 | 80.9 µM | 2.55 µM | – | – | –
34 | COc1cccc2cc[n+](-c3ccc(Br)cc3F)cc12 | 196 µM | 0.9 µM | – | – | –
35 | COc1cccc2cc[n+](-c3ccccc3I)cc12 | 36.9 µM | 2.06 µM | – | – | –
36 | Brc1ccc([N+]2=Cc3ccccc3CC2)cc1 | 63.7 µM | 10.5 µM | – | – | –
37 | COc1cccc2cc[n+](-c3ccc(Cl)cc3)cc12 | 104 µM | 0.17 µM | – | – | –
38 | COc1cccc2cc[n+](-c3ccccc3C(F)(F)F)cc12 | – | > 10 µM | – | – | –
39 | COc1cccc2cc[n+](-c3cccc(I)c3)cc12 | – | > 10 µM | – | – | –
40 | COc1cccc2cc[n+](-c3cccc(C)c3)cc12 | 30.6 µM | 2.21 µM | – | – | –
41 | COc1cccc(-[n+]2ccc3cccc(OC)c3c2)c1 | 98.3 µM | 6.9 µM | – | – | –
42 | COc1cccc2cc[n+](-c3cccc(C#N)c3)cc12 | > 250 µM | 3.41 µM | – | – | –
43 | COc1ccccc1-[n+]1ccc2cccc(OC)c2c1 | – | > 10 µM | – | – | –
44 | COc1cccc2cc[n+](-c3ccccc3C#N)cc12 | 59.4 µM | 1.75 µM | – | – | –

Row | Structure (SMILES) | IC50 (Cholinesterase) | IC50 (Acetylcholinesterase) | IC50 [1] | IC50 (N2a) | IC50 [2]
45 | COc1cccc2cc[n+](-c3ccc(Cl)cc3Cl)cc12 | 232 µM | 3.42 µM | – | – | –
46 | COc1cccc2cc[n+](-c3ccccc3Cl)cc12 | 67.2 µM | 5.33 µM | – | – | –
47 | COc1cccc2cc[n+](-c3c(F)cccc3F)cc12 | 48.4 µM | 2.7 µM | – | – | –
48 | COc1cccc2cc[n+](-c3cccc(Cl)c3)cc12 | 36.4 µM | 9.45 µM | – | – | –
49 | COc1cccc2cc[n+](-c3ccc(Br)cc3)cc12 | 21.6 µM | 0.19 µM | > 50 µM | 20.8 µM | 19.8 µM
50 | COc1cccc2cc[n+](-c3ccccc3)cc12 | 80.3 µM | 1.42 µM | – | – | –
51 | COc1cccc2cc[n+](-c3ccc(Br)cc3Br)cc12 | 131 µM | 0.57 µM | > 50 µM | > 50 µM | > 50 µM
52 | COc1cccc2cc[n+](-c3ccc(I)cc3F)cc12 | 89.8 µM | 1.23 µM | – | – | –
53 | COc1cccc2cc[n+](-c3cccc(Br)c3)cc12 | – | > 10 µM | – | – | –
54 | COc1cccc2cc[n+](-c3ccc(I)cc3)cc12 | 36.1 µM | 0.72 µM | – | – | –
55 | COc1cccc2cc[n+](-c3cccc(F)c3)cc12 | > 250 µM | 9.13 µM | – | – | –
56 | COc1cccc2cc[n+](-c3ccc(C#N)cc3)cc12 | – | > 10 µM | – | – | –
57 | COc1cccc2cc[n+](-c3ccccc3Br)cc12 | 89.5 µM | 5.23 µM | – | – | –
58 | Brc1ccc(-[n+]2ccc3ccccc3c2)cc1 | 130 µM | 2.39 µM | – | – | –
59 | COc1cccc2cc[n+](-c3ccc(F)cc3)cc12 | 143 µM | 0.67 µM | – | – | –
60 | COc1cccc2cc[n+](-c3cccc(C(F)(F)F)c3)cc12 | – | > 10 µM | – | – | –
61 | COc1ccc(-[n+]2ccc3cccc(OC)c3c2)cc1 | 3.84 µM | 0.14 µM | > 50 µM | > 50 µM | > 50 µM
62 | COc1cccc2cc[n+](-c3cc(Cl)cc(Cl)c3)cc12 | – | > 10 µM | – | – | –
63 | COc1cccc2cc[n+](-c3ccccc3C)cc12 | 243 µM | 2.89 µM | – | – | –
64 | COc1cccc2cc[n+](-c3ccc(C(F)(F)F)cc3)cc12 | 33.5 µM | 0.69 µM | – | – | –
65 | COc1cccc2cc[n+](-c3ccc(C)cc3)cc12 | > 250 µM | 1.08 µM | – | – | –
66 | COc1ccc2c(c[n+](C)c3c4cc5c(cc4ccc23)OCO5)c1OC [CHELERYTHRINE] | 8.58 µM | 1.45 µM | – | – | –
